Data from patent US9861694B2, “EGFR antagonist for the treatment of heart disease” (priority 2010, dated 2018).

Assays:
[1] = system: adult cardiac myofibroblasts; test: Collagen I/III and TGF-β1 expression by real-time RT-PCR in treated cardiac myofibroblasts; assay type: cell-based, mice; conditions: for decrease in TGF-β1 levels / decrease in collagen I expression / decrease in collagen III expression: 10 ng/ml EGF, 24 hours
Method: (§1) Cardiac myofibroblast cultures were prepared from ventricles of WT and TIMP-3^−/− mice as previously described. Briefly, hearts were aseptically isolated from adult mice. The ventricles were minced and digested with collagenase and disapase. Fibroblasts subcultured for 2 generations were seeded on culture plates and used for all in vitro experiments. After 2 passages virtually all fibroblasts differentiate into myofibroblasts. Purity of myofibroblasts was verified by FSP-1 and α-smooth muscle actin double staining. Cell proliferation was assessed by Ki67 and FSP-1 double staining.
(§2) To determine the effect of EGF and TGF-β1 on collagen expression and synthesis, adult cardiac myofibroblasts subcultured for 2 generations were placed in low serum (5% FBS) for 24 hours and subsequently treated with either recombinant mouse EGF (rEGF, R&D […], CA) in DMEM containing 5% FBS and cultured for another 24 hours or with TGF-β1 (Millipore, Mass.) and cultured for another 48 hours. Cells were then harvested and experiments were conducted.
Total RNA was extracted from adult cultured myofibroblasts as well as LV tissue of WT and TIMP-3^−/− sham and the infarct region of MI mice 5 days post-surgery using Trizol as previously described. cDNA was synthesized using M-MLV reverse transcriptase (Invitrogen, ON). Real-time PCR was conducted using SYBR Green PCR Master Mix as per manufacturer's instructions (Applied Biological Materials, BC). 28S rRNA (house keeping gene) was used as a loading control since previous studies have shown that it is a reliable loading control especially for use in experiments with hypoxia and MI [13].

[2] = system: adult cardiac myofibroblasts; test: Collagen I synthesis by PINP ELISA in conditioned media of treated cardiac myofibroblasts; assay type: cell-based, mice; conditions: for decrease in collagen I synthesis: 10 ng/ml EGF, 24 hours
Method: as §1, §2
Collagen I synthesis was assessed in the LV myocardium and in conditioned media collected for cultured myofibroblasts using a rat/mouse procollagen I N-terminal peptide (PINP) ELISA kit (IDS-Medicorp, Quebec) according to the manufacturer's instructions. The LV tissues of sham mice and the infarct regions of WT and TIMP-3^−/− mice 5 days post-MI were homogenized in PBS and centrifuged. The supernatant was then collected and protein concentrations were measured. For tissues, 25 μg of total protein was used, while for media, 10 μL of conditioned media was used in the assay. Measurements of absorbances were made using SpectraMax M5 microplate reader at a wavelength of 450 nm. Values are expressed as either ng collagen per mg myocardial tissue or ng/ml conditioned media.

[3] = 10 ng/ml TGF-β1 (high concentration), 48 hours, P<0.01

Substance | effect on collagen I or III expression ([1]; 1 ng/ml EGF (low concentration)) | decrease in TGF-β1 levels ([1]; TIMP-3−/− myofibroblasts) [%] | decrease in collagen I expression ([1]; TIMP-3−/− myofibroblasts) [%] | decrease in collagen III expression ([1]; TIMP-3−/− myofibroblasts) [%] | decrease in TGF-β1 levels ([1]; WT myofibroblasts) [%] | decrease in collagen I expression ([1]; WT myofibroblasts) [%] | decrease in collagen III expression ([1]; WT myofibroblasts) [%] | decrease in collagen I synthesis ([2]; TIMP-3−/− myofibroblasts) [%] | decrease in collagen I synthesis ([2]; WT myofibroblasts) [%] | collagen I and III expression ([1]; 1 ng/ml TGF-β1 (low concentration), 48 hours, P<0.05) | collagen I expression [1, 3] | effect on collagen III compared to controls ([1]; 10 ng/ml TGF-β1 (high concentration), 48 hours, P=n.s.) | collagen I synthesis [2, 3]
EGF: recombinant mouse epidermal growth factor (rEGF) used to treat cardiac myofibroblasts | little effect | 43 | 47 | 51 | 22 | 38 | 41 | 39 | 28 | – | – | – | –
TGF-β1: human recombinant transforming growth factor-beta 1 (Millipore) used to treat cardiac myofibroblasts | – | – | – | – | – | – | – | – | – | significant increase | further increase | no effect | further increase
